Literature values as cited in patent US7141532B2, “Process for the preparation of a dry pesticidal composition containing a dicarboxylate component” (Monsanto Technology LLC, priority 2002, dated 2006).

pK1 (first proton): about 1.25 | pK2 (second proton): about 4.29
Structure (SMILES): O=C(O)C(=O)O [Oxalic acid]
